Experimental findings from patent EP1288203A1, “Cyclic nitrones and pharmaceutical compositions containing them” (Aventis Pharmaceuticals Inc., priority 1995, dated 1997) are described below.

The nature of series [1]: Hydroxyl radical trapping (inhibition of the •OH-dependent bleaching of p-NDA). Type of series: biochemical. The following applies: IC50 for hydroxyl radical trapping in vitro. As for the experimental part:
Cyclic nitrones were evaluated for •OH trapping activity by a variety of tests. The primary assay was dependent upon the ability of the compounds to inhibit the •OH-dependent bleaching of p-NDA. Bors, W., Michel, C., and Saran, M. (1979) J. Biochem. 95, 621-627. The p-NDA was prepared at 1 mM in 50 mM NaCl, pH 7.0. The hydroxyl radical was generated using Fenton chemistry (Fe^2+/H2O2). FeCl2 is dissolved in N2 purged, double distilled H2O to a final concentration of 2.5 mM. H2O2 was prepared from a 30% stock solution (8.8 M) at 1.25 mM in the buffer. Test compounds were solubilized in buffer or ethanol at a concentration of 1 M or 5 M, depending upon solubility.
Assay mixtures in glass cuvettes contained solutions of 0.02 ml of H2O2, 0.02 ml of test compound, 0.10 ml of p-NDA and 50 mM NaCl, pH 7.0 to a final volume of 0.98 ml. The oxidation was initiated by the addition of 0.02 ml of Fe^2+ and the bleaching of p-NDA was monitored as the loss in absorbance at 440 nm for 100 sec. To generate concentration curves, serial dilutions of the test compounds were made such that a constant volume of 0.02 ml was added to the reaction mixture. Ethanol itself is an •OH trap, thus controls contained an equal volume of ethanol for any test compound requiring this vehicle. […]

Series [2] has as its system cerebellar granule cells. The series can be described thus: Protection of cerebellar granule cells against Fe2+-induced oxidative damage. The following applies: Rattus norvegicus, 100 µM ferrous chloride. Type of series: cell-based, rats. The procedure: The cyclic nitrones were tested for their ability to protect primary cultures of cerebellar granule cells against oxidative injury induced by treatment with Fe^2+. Cerebellar granule cell cultures were prepared from 8 day old rats as previously described. Levi, G., Aloisi, F., Ciotti, M.T., Thangnipon, W., Kingsbury, A., and Balazs, R. (1989) In: A Dissection and Tissue Culture Manual of the Nervous System (Shahar, A., de Vellis, J., Vernadakis, A., and Haber, B., eds.) Alan R. Liss, Inc. New York, NY, pp. 211-214. Briefly, 8-10 cerebella were removed and placed in a Crebs-Ringer bicarbonate medium supplemented with BSA and MgSO4. Cerebella were finely chopped and digested with a trypsin/Krebs-Ringer solution. Cells were then dispersed by trituration in Krebs-Ringer containing DNase, MgSO4 and trypsin inhibitor followed by plating at a density of 1x10^6 cells/well in poly-1-lysine coated plate in MEM/10% fetal bovine serum/KCl/glutamine/gentamicin. Media was replaced at 24 hours and cytosine arabinoside added. Experiments were conducted with cells 8-10 days in vitro.
For oxidation studies the media was removed and replaced with Na^+ free Locke's solution (154.6 mM N-methyl-D-glucamine, 5.6 mM KCl, 2.3 mM CaCl2, 1 mM MgCl2, 3.6 mM NaHCO3, and 5 mM HEPES, pH 7.3) with the omission of glucose. The nitrones were added in either Locke's solution or in 20% β-cyclodextrins and allowed to incorporate into the cells for 30 min. At this time 20 µl of a 5 mM stock solution of ferrous chloride was added for a final concentration of 100 µM. After 45 min the media was removed and added to 1.5 ml of TBA/TCA (2:1) with 25 µl of 2% BHT and TBARS determined as described above. The absorbance of the control cells (no iron) was subtracted from the iron treated cells and this value taken as the denominator to determine the concentration of nitrone required to inhibit oxidation by 50%.
Fresh MEM media was added to the cells along with 100 µl of MTT. After 4 hrs, 1 ml of cold isopropanol/0.04 N HCl was added, the cells scraped, mixed well and transferred to 13 x 100 mm glass test tubes. The absorbance resulting from mitochondrial reduction of the MTT (570 nm minus 630 nm) was measured as an assessment of viability. The % cell death was determined by comparison to the absorbance of cells to which no iron was added. The difference between the iron-treated and control cells was taken as 100% and the concentration of nitrone to prevent the loss of MTT reduction capability (expressed in Table II as viability) by 50% was used as the IC50.

Series [3] can be described thus: Sedation after administration in rats. The conditions noted are these: high doses in rats.
Where [4] appears, read: 0.75 h, 45 min, TBARS in media, read-out: TBARS IC50.
[5] abbreviates: IC50 for preventing loss of MTT reduction capability, read-out: Viability.

Like-named read-outs stand apart in the source and are kept apart here.

Consider `CC1(C)Cc2ccoc2C=[N+]1[O-]` [Compound 23, 5,5-Dimethyl-4,5-dihydrofuro[2,3-c]pyridine N-oxide], for which, in series [1], the “OH RADICAL TRAPPING” value is recorded as “no effect at 20 mM”.

As for `CC1(C)Cc2ccc3ccccc3c2C=[N+]1[O-]` [Compound 10, 3,3-Dimethyl-3,4-dihydrobenzo[h]isoquinoline N-oxide], the IC50 in series [2] (setting [4]) stood at 104 µM; in series [2] (setting [5]), 103 µM.

In the case of `CC1(C)Cc2sccc2C=[N+]1[O-]` [Compound 18, 6,6-Dimethyl-6,7-dihydrothieno[3,2-c]pyridine N-oxide], the IC50 in series [2] (setting [4]) came out at 2600 µM; in series [2] (setting [5]), 880 µM.

In the case of `CC1(C)Cc2ccccc2C=[N+]1[O-]` [Compound A, 3,4-dihydro-3,3-dimethylisoquinoline N-oxide, reference compound], in series [3], the sedation entry is “causes sedation”. Also, the IC50 came out at 307 µM in series [2] (setting [4]) and 292 µM in series [2] (setting [5]).
